The values that follow come from patent publication US9593123B2, “Triazolo[4,5-D]pyrimidine derivatives” (Hoffmann-La Roche Inc., priority 2013, dated 2017).

As a reminder, the EC50 is the midpoint of the concentration-response curve.

For assay [1], the target named is human CB2 receptor (Homo sapiens (Human), UniProt P34972). Put plainly: cAMP assay, CHO cells expressing human CB2 receptors. In kind it is cell-based. The settings on record: functional cAMP assay, read-out: CB2 hcAMP EC50. The procedure:
(§1) CHO cells expressing human CB1 or CB2 receptors are seeded 17-24 hours prior to the experiment 50.000 cells per well in a black 96 well plate with flat clear bottom (Corning Costar #3904) in DMEM (Invitrogen No. 31331), 1×HT supplement, with 10% fetal calf serum and incubated at 5% CO2 and 37° C. in a humidified incubator. The growth medium was exchanged with Krebs Ringer Bicarbonate buffer with 1 mM IBMX and incubated at 30° C. for 30 min. Compounds were added to a final assay volume of 100 μl and incubated for 30 min at 30° C. Using the cAMP-Nano-TRF detection kit the assay (Roche Diagnostics) was stopped by the addition of 50 μl lysis reagent (Tris, NaCl, 1.5% Triton X100, 2.5% NP40, 10% NaN3) and 50 μl detection solutions (20 μM mAb Alexa700-cAMP 1:1, and 48 μM Ruthenium-2-AHA-cAMP) and shaken for 2 h at room temperature. The time-resolved energy transfer is measured by a TRF reader (Evotec Technologies GmbH), equipped with a ND:YAG laser as excitation source. The plate is measured twice with the excitation at 355 nm and at the emission with a delay of 100 ns and a gate of 100 ns, total exposure time 10 s at 730 (bandwidth 30 nm) or 645 nm (bandwidth 75 nm), respectively. The FRET signal is calculated as follows: FRET=T730-Alexa730-P(T645-B645) with P=Ru730-B730/Ru645-B645, where T730 is the test well measured at 730 nM, T645 is the test well measured at 645 nm, B730 and B645 are the buffer controls at 730 nm and 645 nm, respectively. cAMP content is determined from the function of a standard curve spanning from 10 μM to 0.13 nM cAMP.
(§2) EC50 values were determined using Activity Base analysis (ID Business Solution, Limited). The EC50 values for a wide range of cannabinoid agonists generated from this assay were in agreement with the values published in the scientific literature.

The target in assay [2] is human CB1 receptor (Homo sapiens (Human), UniProt P21554). Put plainly: cAMP assay, CHO cells expressing human CB1 receptors. In kind it is cell-based. The settings on record: functional cAMP assay, read-out: CB1 hcAMP EC50. The procedure: as §1, §2
For orientation: Changes in cAMP serve as a functional read-out for many G protein-coupled receptors.

Sequence of human CB1 receptor (P21554 whole entry): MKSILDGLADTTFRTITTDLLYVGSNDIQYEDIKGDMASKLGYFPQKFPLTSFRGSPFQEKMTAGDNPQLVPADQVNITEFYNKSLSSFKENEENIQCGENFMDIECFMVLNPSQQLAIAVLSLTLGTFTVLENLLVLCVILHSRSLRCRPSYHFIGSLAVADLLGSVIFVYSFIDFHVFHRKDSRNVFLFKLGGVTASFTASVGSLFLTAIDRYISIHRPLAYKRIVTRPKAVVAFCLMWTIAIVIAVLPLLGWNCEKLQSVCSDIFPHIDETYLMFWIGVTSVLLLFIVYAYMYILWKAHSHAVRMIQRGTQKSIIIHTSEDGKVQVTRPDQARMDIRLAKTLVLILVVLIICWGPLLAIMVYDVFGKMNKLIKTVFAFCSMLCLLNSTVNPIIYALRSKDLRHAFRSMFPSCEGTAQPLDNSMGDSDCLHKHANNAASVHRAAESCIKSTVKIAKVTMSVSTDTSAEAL
Sequence of human CB2 receptor (P34972 whole entry): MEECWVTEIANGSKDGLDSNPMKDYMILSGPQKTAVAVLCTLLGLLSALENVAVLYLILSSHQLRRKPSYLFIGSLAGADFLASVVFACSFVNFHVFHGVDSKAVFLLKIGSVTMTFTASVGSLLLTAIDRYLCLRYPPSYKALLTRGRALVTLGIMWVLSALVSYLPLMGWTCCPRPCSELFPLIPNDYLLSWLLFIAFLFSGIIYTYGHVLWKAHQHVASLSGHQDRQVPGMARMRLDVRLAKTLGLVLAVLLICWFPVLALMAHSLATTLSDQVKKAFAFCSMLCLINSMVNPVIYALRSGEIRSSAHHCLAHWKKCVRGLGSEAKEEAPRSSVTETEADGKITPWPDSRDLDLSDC

As to `COc1ccc(Cn2nnc3c(N4CC[C@@](C)(O)C4)nc(NC(C)(C)C)nc32)cc1` [Example 31, (3R)-1-[5-(tert-Butylamino)-3-[(4-methoxyphenyl)methyl]triazolo[4,5-d]pyrimidin-7-yl]-3-methylpyrrolidin-3-ol], the half-maximal effective concentration (EC50) in assay [1] is 56 nM; in assay [2], above 10000 nM.
For `CC(C)(C)Sc1nc(N2CCC(F)(F)C2)c2nnn(Cc3ccccc3Cl)c2n1` [Example 85, 5-tert-Butylsulfanyl-3-[(2-chlorophenyl)methyl]-7-(3,3-difluoropyrrolidin-1-yl)triazolo[4,5-d]pyrimidine], in that order: 0.9 nM and 108 nM.
For `O[C@H]1CCN(c2nc(OCC(F)(F)F)nc3c2nnn3Cc2ccccc2C(F)(F)F)C1` [Example 61, (3S)-1-[5-(2,2,2-Trifluoroethoxy)-3-[[2-(trifluoromethyl)phenyl]methyl]triazolo[4,5-d]pyrimidin-7-yl]pyrrolidin-3-ol], in that order: 7.5 nM and above 10000 nM.
Consider `FC1(F)CCN(c2nc(OCC3CC3)nc3c2nnn3Cc2ccccc2Cl)C1` [Example 47, 3-[(2-Chlorophenyl)methyl]-5-(cyclopropylmethoxy)-7-(3,3-difluoropyrrolidin-1-yl)triazolo[4,5-d]pyrimidine], for which the concentration for a half-maximal effect (EC50) is 3.6 nM in assay [1] and above 10000 nM in assay [2].
For `OCCSc1nc(N2CCC(F)(F)C2)c2nnn(Cc3ccccc3Cl)c2n1` [Example 89, 2-[3-[(2-Chlorophenyl)methyl]-7-(3,3-difluoropyrrolidin-1-yl)triazolo[4,5-d]pyrimidin-5-yl]sulfanylethanol], in that order: 7.4 nM and above 10000 nM.
For `FC1(F)CCN(c2nc(N3CCOCC3)nc3c2nnn3Cc2ccccc2Cl)C1` [Example 14, 4-[3-[(2-Chlorophenyl)methyl]-7-(3,3-difluoropyrrolidin-1-yl)triazolo[4,5-d]pyrimidin-5-yl]morpholine], the EC50 in assay [1] is 3.5 nM; in assay [2] it was above 10000 nM.
For `C[C@@]1(O)CCN(c2nc(N3CCOCC3)nc3c2nnn3Cc2ccccc2Cl)C1` [Example 36, (3R)-1-[3-[(2-Chlorophenyl)methyl]-5-morpholin-4-yltriazolo[4,5-d]pyrimidin-7-yl]-3-methylpyrrolidin-3-ol], in that order: 220 nM and above 10000 nM.
Take `CC(F)(F)COc1nc(N2CCC(F)(F)C2)c2nnn(Cc3ccccc3Cl)c2n1` [Example 53, 3-[(2-Chlorophenyl)methyl]-5-(2,2-difluoropropoxy)-7-(3,3-difluoropyrrolidin-1-yl)triazolo[4,5-d]pyrimidine]: the results for the 50% effective concentration (EC50) in assay [1] and in assay [2] were 5.5 nM and above 10000 nM, respectively.
For `COc1ccc(Cn2nnc3c(N4CCC(F)(F)C4)nc(NC(C)(C)C)nc32)cc1` [Example 20, N-tert-Butyl-7-(3,3-difluoropyrrolidin-1-yl)-3-[(4-methoxyphenyl)methyl]triazolo [4,5-d]pyrimidin-5-amine], in that order: 20.3 nM and above 10000 nM.
For `O[C@H]1CCN(c2nc(OCC(F)(F)F)nc3c2nnn3Cc2ccccc2Cl)C1` [Example 60, (3S)-1-[3-[(2-Chlorophenyl)methyl]-5-(2,2,2-trifluoroethoxy)triazolo[4,5-d]pyrimidin-7-yl]pyrrolidin-3-ol], in that order: 0.8 nM and above 10000 nM.
For `CC(C)(C)Nc1nc(N2CCC(F)(F)C2)c2nnn(Cc3ncccc3Cl)c2n1` [Example 24, N-tert-Butyl-3-[(3-chloropyridin-2-yl)methyl]-7-(3,3-difluoropyrrolidin-1-yl)triazolo [4,5-d]pyrimidin-5-amine], in that order: 3.4 nM and above 10000 nM.
As for `C[C@H](Oc1nc(N2CCC(F)(F)C2)c2nnn(Cc3nnnn3C)c2n1)C(F)(F)F` [Example 73, 7-(3,3-Difluoropyrrolidin-1-yl)-3-[(1-methyltetrazol-5-yl)methyl]-5-[(2S)-1,1,1-trifluoropropan-2-yl]oxytriazolo[4,5-d]pyrimidine], the values for the EC50 in assay [1] and in assay [2] were 42.3 nM and above 10000 nM, respectively.
For `CC(=O)N[C@H]1CCN(c2nc(O[C@@H](C)C(F)(F)F)nc3c2nnn3Cc2ccccc2Cl)C1` [Example 80, N-[(3S)-1-[3-[(2-Chlorophenyl)methyl]-5-[(2S)-1,1,1-trifluoropropan-2-yl]oxytriazolo [4,5-d]pyrimidin-7-yl]pyrrolidin-3-yl]acetamide], in that order: 159 nM and above 10000 nM.
For `CCOc1nc(N2CCC(F)(F)C2)c2nnn(Cc3ccccc3Cl)c2n1` [Example 44, 3-[(2-Chlorophenyl)methyl]-7-(3,3-difluoropyrrolidin-1-yl)-5-ethoxytriazolo[4,5-d]pyrimidine], in that order: 4 nM and above 10000 nM.
For `C[C@H](Oc1nc(N2CCC(F)(F)C2)c2nnn(Cc3ccccc3C(F)(F)F)c2n1)C(F)(F)F` [Example 68, 7-(3,3-Difluoropyrrolidin-1-yl)-3-[[2-(trifluoromethyl)phenyl]methyl]-5-[(2S)-1,1,1-trifluoropropan-2-yl]oxytriazolo[4,5-d]pyrimidine], in that order: 0.4 nM and above 10000 nM.
`CC(C)Oc1nc(N2CC[C@H](O)C2)c2nnn(Cc3nnnn3C)c2n1` [Example 64, (3S)-1-[3-[(1-Methyltetrazol-5-yl)methyl]-5-propan-2-yloxytriazolo[4,5-d]pyrimidin-7-yl]pyrrolidin-3-ol]: the concentration for a half-maximal effect (EC50) in assay [1] was 174 nM; in assay [2], above 10000 nM.
For `C[C@H](Oc1nc(N2CCC(F)(F)C2)c2nnn(CCC(F)(F)F)c2n1)C(F)(F)F` [Example 75, 7-(3,3-Difluoropyrrolidin-1-yl)-5-[(2S)-1,1,1-trifluoropropan-2-yl]oxy-3-(3,3,3-trifluoropropyl)triazolo[4,5-d]pyrimidine], in that order: 4.3 nM and above 10000 nM.
In the case of `CC(C)Oc1nc(N2CCC(F)(F)C2)c2nnn(Cc3ccccc3Cl)c2n1` [Example 55, 3-[(2-Chlorophenyl)methyl]-7-(3,3-difluoropyrrolidin-1-yl)-5-propan-2-yloxytriazolo [4,5-d]pyrimidine], the results for the half-maximal effective concentration (EC50) in assay [1] and in assay [2] were 1.2 nM and above 10000 nM, respectively.
For `C[C@H](Oc1nc(N2CCC(F)(F)C2)c2nnn(Cc3nnnn3C3CC3)c2n1)C(F)(F)F` [Example 76, 3-[(1-Cyclopropyltetrazol-5-yl)methyl]-7-(3,3-difluoropyrrolidin-1-yl)-5-[(2S)-1,1,1-trifluoropropan-2-yl]oxytriazolo[4,5-d]pyrimidine], the EC50 in assay [1] was 17.7 nM; in assay [2], above 10000 nM.
For `CCS(=O)(=O)c1nc(N2CCC(F)(F)C2)c2nnn(Cc3ccccc3Cl)c2n1` [Example 86, 3-[(2-Chlorophenyl)methyl]-7-(3,3-difluoropyrrolidin-1-yl)-5-ethylsulfonyltriazolo [4,5-d]pyrimidine], in that order: 86.6 nM and above 10000 nM.
For `FC1(F)CCN(c2nc(NC3COC3)nc3c2nnn3Cc2ccccc2Cl)C1` [Example 17, 3-[(2-Chlorophenyl)methyl]-7-(3,3-difluoropyrrolidin-1-yl)-N-(oxetan-3-yl)triazolo [4,5-d]pyrimidin-5-amine], in that order: 26.6 nM and above 10000 nM.
For `C[C@@H](Oc1nc(N2CCC(F)(F)C2)c2nnn(Cc3ccccc3Cl)c2n1)C(F)(F)F` [Example 51, 3-[(2-Chlorophenyl)methyl]-7-(3,3-difluoropyrrolidin-1-yl)-5-[(2R)-1,1,1-trifluoropropan-2-yl]oxytriazolo[4,5-d]pyrimidine], in that order: 2.1 nM and above 10000 nM.
Regarding `FC(F)COc1nc(N2CCC(F)(F)C2)c2nnn(Cc3ccccc3Cl)c2n1` [Example 43, 3-[(2-Chlorophenyl)methyl]-5-(2,2-difluoroethoxy)-7-(3,3-difluoropyrrolidin-1-yl)triazolo[4,5-d]pyrimidine], the EC50 is 26.4 nM in assay [1] and above 10000 nM in assay [2].
For `CC(C)COc1nc(N2CCC(F)(F)C2)c2nnn(Cc3ccccc3Cl)c2n1` [Example 54, 3-[(2-Chlorophenyl)methyl]-7-(3,3-difluoropyrrolidin-1-yl)-5-(2-methylpropoxy) triazolo[4,5-d]pyrimidine], in that order: 1.2 nM and above 10000 nM.
For `C[C@]1(O)CCN(c2nc(N3CCOCC3)nc3c2nnn3Cc2ccccc2Cl)C1` [Example 32, (3S)-1-[3-[(2-Chlorophenyl)methyl]-5-morpholino-triazolo[4,5-d]pyrimidin-7-yl]-3-methyl-pyrrolidin-3-ol], in that order: 9.6 nM and above 10000 nM.
